“Also recorded” adds a separate entry of the source.
Assays:
[1] = system: ligand-binding domain of THRα or THRβ; assay: Luciferase reporter assay for THRβ selectivity in GloResponse 9XGAL4UAS-luc2P HEK293 cells; type: cell-based; conditions: EC50-based, THRα vs THRβ
Experimental: (§1) Specifically, the procedure performed is described below.
The cells used and cell culture were as follows. GloResponse 9XGAL4UAS-luc2P HEK293 cells (Promega) were stably transfected with pFN26A (BIND) (Promega) containing the coding region of the ligand-binding domain of THRα or THRβ. The cells were cultured in DMEM supplemented with 10% FBS, 200 μg/mL Hygromycin, and 750 μg/mL G418 in 90 mm cell culture dishes at 37° C. with 5% CO2. The cells were subcultured every 3 days and used in a luciferase reporter assay.
The cells were suspended in an assay medium (DMEM supplemented with 5% charcoal/dextran-treated FBS, 25 mM HEPES, and a 4 mM L-Alanyl-L-glutamine solution) and seeded at 2×10^4 cells/well in 96-well plates coated with poly-L-lysine. After incubation at 37° C. with 5% CO2 for 24 hours, each test compound was added at various concentrations. The following day, firefly luciferase luminescence was measured using a Dual-Glo Luciferase Assay System (Promega) with a microplate reader (SpectraMax i3, Molecular Devices). The luminescence of Renilla luciferase was used as an internal standard.

[2] = system: left ventricular cardiomyocytes; assay: Transnuclear width of left ventricular cardiomyocytes; type: in vivo, C57BL/6J mice; conditions: T3; GC-1 high dose 1 μmol/kg BW/day; ZTA-261 dose not specified
Experimental: as §1
The cardiac tissues collected in Test Example 4 were fixed, dehydrated, and paraffin-infiltrated using an automatic fixation and encapsulation device (Sakura Finetek Japan). Paraffin blocks were prepared using a Tissue Tech TEC 6 (Sakura Finetek Japan), and 5 μm thick transverse sections were prepared using a microtome (Leica). The sections were deparaffinized, rehydrated, and then immersed in a Meyer's hematoxylin solution (FUJIFILM Wako Pure Chemical Industries, Ltd.) and in an eosin solution. Thereafter, the sections were dehydrated and mounted using Entellan new (Merck). The sections were observed under a microscope (BX43; Olympus) at 400× magnification, and digital images were captured using cellSens (Olympus). One hundred cells were randomly selected from the left ventricle of each mouse, and their transnuclear width was measured using Image J (NIH) according to a previously reported method.

[3] = Heart weight (cardiac hypertrophy); type: in vivo, C57BL/6J mice
Experimental: (§2) Male 7-week-old C57BL/6J mice were individually housed in cages (Innocages, ORIENTAL GIKEN) and kept warm at 23° C. with a 12-hour light-dark cycle starting at 8:00 AM. After 1 week of acclimation, the animals were given either a normal diet (ND; 10 kcal % fat, D12450B, Research Diets) or a high-fat diet (HFD; 60 kcal % fat, D12492, Research Diets). […] The injection was given 6 hours after lights on. Food consumption and body weight were measured weekly. Food and water were provided to the animals ad libitum. After 3 weeks of daily injections, whole blood was collected under isoflurane anesthesia, and the heart and liver were harvested. The liver was frozen and stored at −80° C.
Left ventricular hypertrophy is often associated with hyperthyroidism caused by increased heart rate mediated by hTHRα. Therefore, hTHRβ-selective analogs are expected to avoid this adverse effect on the heart. To examine whether cardiac hypertrophy was induced, the weight of the heart collected in Test Example 4 was measured.

[4] = Bone structure parameters (bone metabolism); type: in vivo; conditions: mice of Test Example 4
Experimental: The effect of the test compounds on bone metabolism was investigated. Specifically, bone structure parameters (bone volume: BV/TV, trabecular number: Tb.N, trabecular separation: Tb.Sp, trabecular thickness: Tb.Th, connectivity density: Conn.D) were measured using thin sections prepared from the bones of mice in Test Example 4.

[5] = Serum ALT level (hepatotoxicity); type: in vivo, C57BL/6J mice; conditions: compared to the vehicle
Experimental: as §1
The blood samples collected in Test Example 4 were left to stand at room temperature for 1 hour, and then centrifuged at 4° C., 800×g, for 15 minutes, followed by collecting the supernatant. The serum ALT levels were measured using an Alanine Aminotransferase (ALT or SGPT) Activity Colorimetric/Fluorometric Assay Kit (BioVision) according to the manufacturer's protocol.

Ldlr, Srebp1c = assay: Further testing: LDL uptake, Ldlr and Srebp1c expression; type: in vivo
[6] = system: lipid droplets in hepatocytes; assay: Oil Red O staining of liver sections, high-fat diet mice; type: in vivo, C57BL/6J mice; conditions: HFD mice, 1 μmol/kg-day i.p. for 3 weeks, compared to the vehicle
Experimental: Lipid droplets are organelles for storing neutral lipids, such as triglycerides and cholesterol esters. Excessive accumulation of lipid droplets in hepatocytes is characteristic of non-alcoholic fatty liver disease (NAFLD). […] Specifically, the procedure performed is described below.
as §2
20 μm sections were prepared from the frozen liver tissues using a cryostat (CM3050 S, Leica). The sections were mounted on silane-coated glass slides, dried at room temperature, and stored at −80° C. until use. Before staining, the sections were fixed with 1% PFA/1×PBS, pH of 7.4 (Gibco), for 5 minutes, then immersed in 1×PBS for 5 minutes, distilled water for 5 minutes, and a 60% 2-propanol solution for 1 minute. The Oil Red O staining solution was prepared by mixing 0.36 g of Oil Red O (Sigma) with 120 mL of 2-propanol and 80 mL of distilled water, letting it stand at room temperature for 1 hour, filtering the solution, and then leaving it overnight at 37° C. The sections were immersed in the Oil Red O staining solution at 37° C. for 15 minutes, and then rinsed in 60% 2-propanol for 1 minute and in distilled water for 1 minute. Thereafter, the sections were counterstained with Meyer's hematoxylin. […] The area of red-stained lipid droplets was quantified using Image J (NIH), and the percentage of the stained area in the total image area was calculated. Three sections per mouse were analyzed.

full-length human THRα = molecular target: T1, full-length human THRα (Homo sapiens, UniProt P10827); assay: Radioligand-displacement assay ([125I]-T3), THRα; conditions: ratio of the IC50 values THRα/THRβ
T1 sequence (P10827 1-410 isoform P10827-2): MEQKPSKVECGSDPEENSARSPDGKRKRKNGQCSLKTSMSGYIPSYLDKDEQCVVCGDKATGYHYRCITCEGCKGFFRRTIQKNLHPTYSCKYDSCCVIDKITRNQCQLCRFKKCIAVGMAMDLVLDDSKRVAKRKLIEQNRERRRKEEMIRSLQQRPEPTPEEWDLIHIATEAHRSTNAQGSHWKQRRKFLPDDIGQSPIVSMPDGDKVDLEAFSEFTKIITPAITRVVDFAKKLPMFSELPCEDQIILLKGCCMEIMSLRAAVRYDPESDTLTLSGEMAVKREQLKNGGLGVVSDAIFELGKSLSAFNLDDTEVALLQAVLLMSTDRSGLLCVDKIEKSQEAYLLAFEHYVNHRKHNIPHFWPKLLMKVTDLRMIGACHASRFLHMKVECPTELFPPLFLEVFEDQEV
Experimental: Specifically, the assessment was performed as described below by using full-length human THRα and THRβ synthesized by in vitro transcription-translation.
The reaction mixture was incubated overnight at 4° C. A nitrocellulose membrane (Optitran, 0.45 μm in pore size, Whatman) pre-blocked with E-400 buffer was placed in a dot-blot apparatus (Minifold I, GE Healthcare), and the reaction mixture was filtered through the membrane, followed by washing three times with 200 μL of E-400 buffer. […] Radioactive signals were scanned using a Typhoon FLA9000 (GE Healthcare) and quantified by using Image Quant TL software (GE Healthcare). The IC50 value of each competitor drug was calculated by fitting the dose response data to a one-site competition model using GraphPad Prism version 7.0 (GraphPad Software).

THRα = molecular target: T2, THRα (Homo sapiens, UniProt P10827); conditions: relative to T3; cited from earlier work
T2 sequence (P10827 1-410 isoform P10827-2): T1 sequence (P10827 1-410 isoform P10827-2)

Compound	THRβ selectivity [1]	width of cardiomyocytes (transnuclear width, left ventricle) [2]	heart weight ([3]; high dose 1 μmol/kg BW/day)	heart weight ([3]; low dose 0.1 μmol/kg BW/day)	bone structure parameters (BV/TV, Tb.N, Tb.Sp, Tb.Th, Conn.D) [4]	serum ALT levels ([5]; high dose 1 μmol/kg BW/day)	serum ALT levels ([5]; low dose 0.1 μmol/kg BW/day)	cellular uptake of LDL (Ldlr, Srebp1c)	expression of Ldlr (Ldlr, Srebp1c)	expression of Srebp1c (Ldlr, Srebp1c)	Oil Red O-positive area [6]	affinity for THRα lower than affinity for THRβ (full-length human THRα)	affinity for THRα lower than T3 (THRα) [fold]
O=C(O)COc1cc(C(F)(F)F)c(Cc2ccc(O)c3ccccc23)c(C(F)(F)F)c1 [ZTA-245]	found to show THRβ selectivity												
O=C(O)Cc1cc(C(F)(F)F)c(Cc2ccc(O)c3ccccc23)c(C(F)(F)F)c1 [ZTA-261]		no significant increase	No such effect was observed	No such effect was observed	no significant changes	did not show a significant increase	did not show a significant increase	promoted	increased	decreased	significantly reduced; also recorded: the most effective, reducing the Oil Red O-positive area to a level comparable to the ND-administered group		
Cc1cc(OCC(=O)O)cc(C)c1Cc1ccc(O)c2ccccc12 [MY-53]	found to show THRβ selectivity												
Cc1cc(OCC(=O)O)cc(C)c1Cc1ccc(O)c(C(C)C)c1 [GC-1]		increased	significantly increased		significantly worsened	significant increase		promoted	increased	decreased	significantly reduced	about 30 times	10
N[C@@H](Cc1cc(I)c(Oc2ccc(O)c(I)c2)c(I)c1)C(=O)O [T3, triiodothyronine]		increased	significantly increased		significantly worsened			promoted	increased	decreased	significantly reduced		
